Experiments:
ER-β mRNA = assay: Real-time RT-PCR of MSKPC9 xenograft tumors, ER-β mRNA; format: in vivo; conditions: MSKPC9 tumor xenografts, treated vs control
Description: Total RNA was extracted from prostate tumors using TRIZOL reagent (available from Invitrogen Corporation; Carlsbad, Calif.). DNase I (obtained from Ambion, Inc.; Austin, Tex.) was used to rid the samples of any extraneous DNA that might interfere with the reaction. The yield was quantified spectrophotometrically. Total RNA was reverse-transcribed into cDNA and PCR was performed in the same reaction by using TAQMAN One-Step RT-PCR Master Mix Reagents Kit (obtained from Applied Biosystems; Foster City, Calif.; hereinafter “Applied Biosystems”). Probes were labeled with 6-FAM on the 5′ end and TAMRA on the 3′ end. β-actin was used as the endogenous control and normalizer. The primer pairs used are depicted in Table 1, as follows:
The PCR cycling conditions were performed for all of the samples as follows: 30 minutes at 48° C. for RT step; 10 minutes at 95° C. for […] GOLD Activation (available from Applied Biosystems); and 40 cycles for the melting (95° C., 15 seconds), and annealing/elongation (60° C. for one minute) steps. PCR reactions for each template were done in triplicate using 1 μg of total mRNA per sample. Each gene-specific primer pair was tested on standard 384-well plates. […]
The comparative Ct method (PE Applied Biosystems) was used to determine relative quantification of gene expression for each gene compared with the β-actin control. […]

[1] = Clinical study of raloxifene: toxicity (NCI Common Toxicity Criteria, v2.0); format: in vivo, human
Description: Response to therapy was assessed after the first two months of therapy and then monthly thereafter. Toxicity was assessed monthly at each study visit. […] A partial response (“PR”) required a decrease by >50% of the sum of the products of the perpendicular diameters for all measurable lesions lasting at least one month, no appearance of new lesions, and a reduction in serum PSA by >50% on two consecutive occasions at least one month apart. For patients being evaluated by bone metastases, a PR required a reduction in serum PSA by >50% on two consecutive occasions at least one month apart an improvement in bone scan (reduction in intensity or size of one or more metastatic foci and no new foci of radionuclide uptake unless due to […] healing documented on plain radiograph, CT scan, or MRI scan). During this time there should have been no cancer-associated deterioration in weight, performance status, or symptoms. Progressive disease (“PD”) was defined by any of the following: (1) increase >25% in the sum of the products of the perpendicular diameters of bidimensionally measurable lesions in the sum of the transverse diameters of unidimensionally measurable lesions, (2) the appearance of new lesions, and (3) by the increase in serum PSA >50% over baseline as documented on two successive measurements >28 days apart. […] For PD to be scored by PSA criteria alone, a confirmatory PSA determination was required and obtained two weeks after the value representing a >50% increase. Patients who had improvement in one objective parameter while meeting the criteria for PD by another parameter were scored as having PD.
Treatment was administered with monthly lab draws and follow-up visits with the physician. […] Patients received 1 mg oral COUMADIN daily (or 0.5 mg oral COUMADIN daily if patients were already taking aspirin).
The reported urinary tract infection (“UTI”) (1) and hematuria (1) were thought to be related to the patient's underlying disease. Two grade 3 events were reported: a grade 3 arthralgia/myalgia thought to be related to the patient's recent injury, and a grade 3 elevated creatinine that was attributed to the patient's disease progression.

[2] = EVISTA package insert; cited from earlier work

O=C(c1ccc(OCCN2CCCCC2)cc1)c1c(-c2ccc(O)cc2)sc2cc(O)ccc12 [raloxifene]
ER-β mRNA, difference between treatment groups (ER-β mRNA): no difference | severity of most drug related toxicities reported ([1]; 60 mg oral daily): mild (grade 1-2) | tolerability ([1]; 60 mg oral daily, with low dose COUMADIN): well tolerated | Patients experiencing drug-related toxicity: Anemia ([1]; Grade 1): 2 patients | Patients experiencing drug-related toxicity: Arthralgia/Myalgia ([1]; Grade 1): 2 patients | Patients experiencing drug-related toxicity: Bicarbonate ([1]; Grade 1): 1 patients | Patients experiencing drug-related toxicity: Bone Pain ([1]; Grade 1): 1 patients | Patients experiencing drug-related toxicity: Diarrhea ([1]; Grade 1): 1 patients | Patients experiencing drug-related toxicity: Edema ([1]; Grade 1): 1 patients | Patients experiencing drug-related toxicity: Fatigue/Malaise ([1]; Grade 1): 1 patients | Patients experiencing drug-related toxicity: Hematuria ([1]; Grade 1): 1 patients | Patients experiencing drug-related toxicity: Hot flashes ([1]; Grade 1): 2 patients | Patients experiencing drug-related toxicity: Hypercholesterolemia ([1]; Grade 1): 2 patients | Patients experiencing drug-related toxicity: Hyperglycemia ([1]; Grade 1): 1 patients | Patients experiencing drug-related toxicity: Hypoalbuminemia ([1]; Grade 1): 2 patients | Patients experiencing drug-related toxicity: Hypoglycemia ([1]; Grade 1): 1 patients | Patients experiencing drug-related toxicity: Increased Alkaline Phosphatase ([1]; Grade 1): 3 patients | Patients experiencing drug-related toxicity: Increased Creatinine ([1]; Grade 1): 1 patients | Patients experiencing drug-related toxicity: Increased SGOT (AST) ([1]; Grade 1): 1 patients | Patients experiencing drug-related toxicity: Nausea/Vomiting ([1]; Grade 1): 1 patients | Patients experiencing drug-related toxicity: Rash ([1]; Grade 1): 1 patients | Patients experiencing drug-related toxicity: UTI ([1]; Grade 1): 1 patients | Patients experiencing drug-related toxicity: Anemia ([1]; Grade 2): 1 patients | Patients experiencing drug-related toxicity: Bone Pain ([1]; Grade 2): 1 patients | Patients experiencing drug-related toxicity: Constipation ([1]; Grade 2): 2 patients | Patients experiencing drug-related toxicity: Fatigue/Malaise ([1]; Grade 2): 1 patients | Patients experiencing drug-related toxicity: Hypertriglyceridemia ([1]; Grade 2): 1 patients | Patients experiencing drug-related toxicity: Hypotension ([1]; Grade 2): 1 patients | Patients experiencing drug-related toxicity: Nausea/Vomiting ([1]; Grade 2): 1 patients | Patients experiencing drug-related toxicity: Arthralgia/Myalgia ([1]; Grade 3): 1 patients | Patients experiencing drug-related toxicity: Hyperglycemia ([1]; Grade 3): 1 patients | Patients experiencing drug-related toxicity: Increased Creatinine ([1]; Grade 3): 1 patients | tolerability in previous clinical studies [2]: well tolerated
